Data: patent publication US8008299B2, “Urotensin II receptor antagonists” (Janssen Pharmaceutica, N.V., priority 2007, dated 2011)
pIC50, pKi: −log10 of the molar value. Read-outs that look alike come from different tables or passages of the source.

Tests used:
[1] = target: T1, rat GPR14 (U-II receptor) (Rattus norvegicus, UniProt P49684); assay: Rat UII Calcium Mobilization FLIPR Assay; format: cell-based; conditions: CHO cells transfected with rat GPR14; antagonist activity after 5 min incubation vs agonist (Ac)-CFWK(2-NaI)C-NH2 at 1 nM
T1 construct: expressed in transfected cells
T1 sequence (P49684 1-386): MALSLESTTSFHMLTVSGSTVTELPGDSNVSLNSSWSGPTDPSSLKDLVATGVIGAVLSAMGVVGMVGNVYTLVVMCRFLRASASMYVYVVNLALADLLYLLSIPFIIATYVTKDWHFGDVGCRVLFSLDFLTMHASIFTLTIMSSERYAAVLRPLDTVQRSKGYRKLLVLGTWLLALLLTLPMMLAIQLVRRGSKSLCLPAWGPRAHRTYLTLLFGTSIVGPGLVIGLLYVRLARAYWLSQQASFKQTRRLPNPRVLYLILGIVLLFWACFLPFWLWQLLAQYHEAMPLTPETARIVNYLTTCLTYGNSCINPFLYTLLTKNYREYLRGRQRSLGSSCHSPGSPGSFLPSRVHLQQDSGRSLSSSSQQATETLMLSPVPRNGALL
Excerpt: To derive these cells, the complete coding sequence of rat U-II (Genbank Accession No. U32673) was amplified by nested PCR from rat heart marathon-Ready cDNA. […] The PCR products were cloned into pcDNA3 (Invitrogen) digested with EcoR I and Xba I. Clones containing rat U-II receptor were verified by complete sequencing of the U-II receptor insert to ensure a lack of PCR-introduced errors. The constructed vector was transfected into CHO cells by using lipofectamine (GIBCO BRL). CHO cells with high expression of rat U-II receptor were selected and established as stable cell lines by using G418. CHO cells were seeded at 25,000 cells per well into 96-well, black-wall, clear-bottom microtiter plates 24 h before assay. Cells in culture media (DMEM/F12 containing 15 mM HEPES, L-glutamine, pyridoxine hydrochloride; 10% fetal bovine serum; 1 mg/mL G418 sulfate; antibiotic-antimycotic; pH 7.4) were loaded with proprietary dye, from the FLIPR Calcium Assay Kit (Molecular Devices), prepared in assay buffer (Hanks Balanced Salts Solution, 20 mM HEPES, 0.1% BSA, 2.5 mM probenecid, pH 7.4), and incubated for 1 h at 37° C. Calcium mobilization determinations were performed at room temperature (23° C.).

[2] = target: T2, Human UII (U-II receptor) in 6D9 human rhabdomyosarcoma cells (Homo sapiens, UniProt Q9UKP6); assay: Human UII Calcium Mobilization Assay; format: cell-based
T2 construct: 6D9: isolated by dilution subcloning of RMS13 cells, ATCC® Number: CRL-2061; host or cells: 6D9 human rhabdomyosarcoma cells (subclone of RMS13)
T2 sequence (Q9UKP6 1-389): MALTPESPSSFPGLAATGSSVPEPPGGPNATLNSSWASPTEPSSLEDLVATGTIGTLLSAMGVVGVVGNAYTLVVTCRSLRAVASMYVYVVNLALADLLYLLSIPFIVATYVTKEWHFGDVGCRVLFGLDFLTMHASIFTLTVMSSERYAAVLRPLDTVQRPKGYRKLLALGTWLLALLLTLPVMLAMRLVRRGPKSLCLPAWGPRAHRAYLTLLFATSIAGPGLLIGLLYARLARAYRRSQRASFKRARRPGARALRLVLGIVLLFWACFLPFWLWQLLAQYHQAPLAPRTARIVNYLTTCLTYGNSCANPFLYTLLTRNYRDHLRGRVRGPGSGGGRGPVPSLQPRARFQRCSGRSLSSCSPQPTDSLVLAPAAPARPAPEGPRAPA
Procedure: 25 μL of dye solution was added to the wells such that the final liquid volume before agonist/antagonist treatment was 50 μL for all assays. The cell plates were incubated at 37° C. for 45 minutes and the fluorescence intensity was measured on a Fluorometric Imaging Plate Reader (FLIPR^TETRA, Molecular Devices, Sunnyvale, Calif.).
Antagonist and agonist U-II were added at room temperature on the FLIPR^TETRA, and the fluorescence intensity before and after addition was measured over a period of 4 minutes. The dye incubation time and temperature as well as instrument setting was adjusted so the fluorescence intensity could be compared between plates on the same day. EC50 and IC50 were analyzed using GraphPad Prism 4 software (GraphPad Software Inc., San Diego, Calif.).
For assays, U-II agonist, U-II antagonist and urantide were diluted with HBSS/HEPES containing 0.01% FBS.
Test compounds were dissolved in DMSO at 10 mM concentration. The serial dilutions were carried out in HBSS/HEPES. The highest final DMSO concentration was at 0.1%.

[3] = target: T3, UT receptors in HSMM (Human Skeletal Muscle Myoblasts) (Homo sapiens, UniProt Q9UKP6); assay: Human Radioligand Binding Assay ((^125I)-U-II binding to intact HSMM)
T3 sequence (Q9UKP6 1-389): T2 sequence (Q9UKP6 1-389)

[4] = 6D9 human rhabdomyosarcoma cells, FLIPR TETRA, average, read-out: Human UII Ca+ Mobilization Average IC50
[5] = read-out: Human UII Average Binding Ki, intact HSMM, 0.150 nM (^125I)-U-II, 3 h, 25° C.

Row | Compound | pIC50 [1] | pIC50 [2, 4] | pKi [3] | pKi [3, 5] | pIC50 [2]
1 | CCN1CCN(c2cccc3c2CN([C@H](CCCNc2c(N)c(=O)c2=O)c2ccc(OC)c(OC)c2)C3=O)CC1 [Cpd 76, 3-amino-4-{(4R)-4-(3,4-dimethoxy-phenyl)-4-[4-(4-ethyl-piperazin-1-yl)-1-oxo-1,3-dihydro-isoindol-2-yl]-butylamino}-cyclobut-3-ene-1,2-dione] | 7.34 | 6.17 | 7.48 |  | 
2 | CCN1CCN(c2cccc3c2CN([C@H](CCCNC(=O)c2cn[nH]c2)c2ccc(OC)c(OC)c2)C3=O)CC1 [Cpd 79, 1H-pyrazole-4-carboxylic acid {(4R)-4-(3,4-dimethoxy-phenyl)-4-[4-(4-ethyl-piperazin-1-yl)-1-oxo-1,3-dihydro-isoindol-2-yl]-butyl}-amide] | 8.22 | 6.88 | 7.41 |  | 
3 | CCN1CCN(c2cccc3c2CN([C@H](CCCn2ccnc2C)c2ccc(OC)c(OC)c2)C3=O)CC1 [Cpd 103, 2-[(1R)-1-(3,4-dimethoxy-phenyl)-4-(2-methyl-imidazol-1-yl)-butyl]-4-(4-ethyl-piperazin-1-yl)-2,3-dihydro-isoindol-1-one] | 6.85 | 5.85 | 6.80 |  | 
4 | CCN1CCN(c2cccc3c2CN([C@H](CCCn2cc(C)nc2C)c2ccc(OC)c(OC)c2)C3=O)CC1 [Cpd 102, 2-[(1R)-1-(3,4-dimethoxy-phenyl)-4-(2,4-dimethyl-imidazol-1-yl)-butyl]-4-(4-ethyl-piperazin-1-yl)-2,3-dihydro-isoindol-1-one] | 7.03 | 5.89 | < 6.52 |  | 
5 | CCN1CCN(c2cccc3c2CN([C@H](CCCNC(=O)C(F)(F)F)c2ccc(OC)c(OC)c2)C3=O)CC1 [Cpd 67, N-{(4R)-4-(3,4-dimethoxy-phenyl)-4-[4-(4-ethyl-piperazin-1-yl)-1-oxo-1,3-dihydro-isoindol-2-yl]-butyl}-2,2,2-trifluoro-acetamide] | 7.30 | 6.06 | 7.37 |  | 
6 | CCN1CCN(c2cccc3c2CN(C(c2cccc(NCc4ccccc4)c2)c2ccc(OC)c(OC)c2)C3=O)CC1 (stereo not drawn) [Cpd 19, 2-[(3-benzylamino-phenyl)-(3,4-dimethoxy-phenyl)-methyl]-4-(4-ethyl-piperazin-1-yl)-2,3-dihydro-isoindol-1-one] | 6.86 | 5.62 | < 6.52 |  | 
7 | COc1ccc([C@@H](CCCN(C)S(=O)(=O)c2cccs2)N2Cc3c(cccc3N3CCNCC3)C2=O)cc1OC [Cpd 30, thiophene-2-sulfonic acid [(4R)-4-(3,4-dimethoxy-phenyl)-4-(1-oxo-4-piperazin-1-yl-1,3-dihydro-isoindol-2-yl)-butyl]-methyl-amide] | 7.41 | 6.39 |  | 7.31 | 
8 | CCN1CCN(c2cccc3c2CN(C(CC2CCN(Cc4ccccc4)CC2)c2ccc(OC)c(OC)c2)C3=O)CC1 (stereo not drawn) [Cpd 13, 2-[2-(1-benzyl-piperidin-4-yl)-1-(3,4-dimethoxy-phenyl)-ethyl]-4-(4-ethyl-piperazin-1-yl)-2,3-dihydro-isoindol-1-one] | 6.78 | 5.70 | < 6.52 |  | 
9 | CCN1CCN(c2cccc3c2CN([C@H](CCCN(Cc2ccccc2)Cc2ccccc2)c2ccc(OC)c(OC)c2)C3=O)CC1 [Cpd 73, 2-[(1R)-4-dibenzylamino-1-(3,4-dimethoxy-phenyl)-butyl]-4-(4-ethyl-piperazin-1-yl)-2,3-dihydro-isoindol-1-one] | 7.59 | 6.75 | 7.28 |  | 
10 | CCN1CCN(c2cccc3c2CN([C@H](CCCNS(=O)(=O)N(C)C)c2ccc(OC)c(OC)c2)C3=O)CC1 [Cpd 70, dimethylaminosulfonic acid {(4R)-4-(3,4-dimethoxy-phenyl)-4-[4-(4-ethyl-piperazin-1-yl)-1-oxo-1,3-dihydro-isoindol-2-yl]-butyl}-amide] | 8.10 | 7.01 | 7.27 |  | 
11 | CCN1CCN(c2cccc3c2CN([C@H](CCCN(C)Cc2ccco2)c2ccc(OC)c(OC)c2)C3=O)CC1 [Cpd 94, 2-[(1R)-1-(3,4-dimethoxy-phenyl)-4-(furan-2-ylmethyl-methyl-amino)-butyl]-4-(4-ethyl-piperazin-1-yl)-2,3-dihydro-isoindol-1-one] | 8.40 | 7.13 | 7.37 |  | 
12 | CCN1CCN(c2cccc3c2CN([C@H](CCCNS(N)(=O)=O)c2ccc(OC)c(OC)c2)C3=O)CC1 [Cpd 58, aminosulfonic acid {(4R)-4-(3,4-dimethoxy-phenyl)-4-[4-(4-ethyl-piperazin-1-yl)-1-oxo-1,3-dihydro-isoindol-2-yl]-butyl}-amide] | 7.09 | 6.35 | 6.96 |  | 
13 | CCN1CCN(c2cccc3c2CN([C@H](CCCNC(=O)c2cccs2)c2ccc(OC)c(OC)c2)C3=O)CC1 [Cpd 81, thiophene-2-carboxylic acid {(4R)-4-(3,4-dimethoxy-phenyl)-4-[4-(4-ethyl-piperazin-1-yl)-1-oxo-1,3-dihydro-isoindol-2-yl]-butyl}-amide] | 8.15 |  |  | 7.74 | 6.86
14 | CCN1CCN(c2cccc3c2CN([C@H](CCCN2Cc4ccccc4C2)c2ccc(OC)c(OC)c2)C3=O)CC1 [Cpd 100, 2-[(1R)-4-(1,3-dihydro-isoindol-2-yl)-1-(3,4-dimethoxy-phenyl)-butyl]-4-(4-ethyl-piperazin-1-yl)-2,3-dihydro-isoindol-1-one] | 8.10 | 6.50 | 7.62 |  | 
15 | COc1ccc([C@@H](CCCNc2nccc(C(F)(F)F)n2)N2Cc3c(cccc3N3CCNCC3)C2=O)cc1OC [Cpd 6, 2-[(1R)-1-(3,4-dimethoxy-phenyl)-4-(4-trifluoromethyl-pyrimidin-2-ylamino)-butyl]-4-piperazin-1-yl-2,3-dihydro-isoindol-1-one] | 8.10 | 6.27 | 6.92 |  | 
16 | COc1ccc([C@@H](CCCn2ccnc2)N2Cc3c(cccc3N3CCNCC3)C2=O)cc1OC [Cpd 35, 2-[(1R)-1-(3,4-dimethoxy-phenyl)-4-imidazol-1-yl-butyl]-4-piperazin-1-yl-2,3-dihydro-isoindol-1-one] | 5.72 | < 5.00 | 5.96 |  | 
17 | CCN1CCN(c2cccc3c2CN([C@H](CCCNC(=O)c2cncn2C)c2ccc(OC)c(OC)c2)C3=O)CC1 [Cpd 59, 3-methyl-3H-imidazole-4-carboxylic acid {(4R)-4-(3,4-dimethoxy-phenyl)-4-[4-(4-ethyl-piperazin-1-yl)-1-oxo-1,3-dihydro-isoindol-2-yl]-butyl}-amide] | 7.09 | 5.90 | < 6.52 |  | 
18 | CCN1CCN(c2cccc3c2CN([C@H](CCCOCc2ccccc2)c2ccc(OC)c(OC)c2)C3=O)CC1 [Cpd 74, 2-[(1R)-4-benzyloxy-1-(3,4-dimethoxy-phenyl)-butyl]-4-(4-ethyl-piperazin-1-yl)-2,3-dihydro-isoindol-1-one] | 8.30 | 6.84 | 7.72 |  | 
